{
  "source": "patent US20130252930A1",
  "about": "(BIOMARIN PHARMACEUTICAL INC., priority 2010, published 2013)",
  "key": {"[1]": {"biological_target": "T1, CYP17 (human testicular microsome) (Homo sapiens, UniProt P05093)", "T1 construct": "using microsomal fraction from human testis (Celsis Cat #S00110) as the enzyme source; tissue Celsis S00110; host or cells: human testis microsomal fraction", "T1 sequence (P05093 1-508)": "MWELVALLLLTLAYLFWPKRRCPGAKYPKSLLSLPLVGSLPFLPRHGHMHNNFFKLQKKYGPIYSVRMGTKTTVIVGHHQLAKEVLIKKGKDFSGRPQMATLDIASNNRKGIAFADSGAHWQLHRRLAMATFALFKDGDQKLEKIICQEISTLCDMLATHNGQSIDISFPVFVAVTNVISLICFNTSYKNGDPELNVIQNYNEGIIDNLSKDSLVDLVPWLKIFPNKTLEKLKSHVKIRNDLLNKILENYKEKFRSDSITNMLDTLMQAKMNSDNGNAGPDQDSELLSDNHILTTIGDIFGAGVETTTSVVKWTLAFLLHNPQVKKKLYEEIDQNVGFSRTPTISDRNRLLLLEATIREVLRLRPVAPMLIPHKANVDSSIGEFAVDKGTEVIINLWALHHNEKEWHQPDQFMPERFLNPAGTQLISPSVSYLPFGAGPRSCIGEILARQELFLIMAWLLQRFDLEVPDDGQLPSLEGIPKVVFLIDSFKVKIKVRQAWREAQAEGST", "assay": "CYP17 enzymatic assay (IC50) (Biological Example 4)", "type": "biochemical", "conditions": "human testicular microsome"}, "[2]": {"biological_target": "T1, CYP17 (human testicular microsome)", "assay": "CYP17 enzymatic assay (% inhibition at 1 nM) (Biological Example 12)", "type": "biochemical", "conditions": "compound at 1 nM"}, "[3]": {"conditions": "read-out: CYP17 enzymatic assay IC50 (Biological Example No. 4)"}, "[4]": {"conditions": "read-out: Biological Example No. 4: CYP17 enzymatic assay IC50"}, "[5]": {"conditions": "read-out: CYP17 enzymatic assay % inhibition at 1 nM (Biological Example No. 12)"}},
  "note": "Where two headings read alike, the source gives them in different places.",
  "data": [
    {"smiles": "C[C@]12CCC(F)(F)CC1CCC1C2CC[C@]2(C)C(n3ccnc3)=CCC12", "note": "(stereo partly drawn) [Compound 406, 1-((10S,13S)-3,3-difluoro-10,13-dimethyl-2,3,4,5,6,7,8,9,10,11,12,13,14,15-tetradecahydro-1H-cyclopenta[a]phenanthren-17-yl)-1H-imidazole]", "values": [
      {"measurement": "IC50", "setting": "[1]; [3]", "value": "< 11", "unit": "nM"}
    ]},
    {"smiles": "C[C@]12CCC(F)(F)CC1CCC1C2CC[C@]2(C)C(c3cccnc3)=CCC12", "note": "(stereo partly drawn) [Compound 404, 3-((10S,13S)-3,3-difluoro-10,13-dimethyl-2,3,4,5,6,7,8,9,10,11,12,13,14,15-tetradecahydro-1H-cyclopenta[a]phenanthren-17-yl)pyridine]", "values": [
      {"measurement": "IC50", "setting": "[1]; [4]", "value": "< 11", "unit": "nM"}
    ]},
    {"smiles": "C[C@]12CCC3C(CCC4CC(F)(F)CC[C@@]43C)C1=CC=C2c1cncc(F)c1", "note": "(stereo partly drawn) [Compound 402, 3-((10S,13S)-3,3-difluoro-10,13-dimethyl-2,3,4,5,6,7,8,9,10,11,12,13-dodecahydro-1H-cyclopenta[a]phenanthren-17-yl)-5-fluoropyridine]", "values": [
      {"measurement": "IC50", "setting": "[1]; [4]", "value": "> 25", "unit": "nM"}
    ]},
    {"smiles": "C[C@]12CCC3C(CCC4CC(F)(F)CC[C@@]43C)C1=CC=C2c1cccnc1", "note": "(stereo partly drawn) [Compound 403, 3-((10S,13S)-3,3-difluoro-10,13-dimethyl-2,3,4,5,6,7,8,9,10,11,12,13-dodecahydro-1H-cyclopenta[a]phenanthren-17-yl)pyridine]", "values": [
      {"measurement": "IC50", "setting": "[1]; [4]", "value": "< 11", "unit": "nM"}
    ]},
    {"smiles": "C[C@]12CCC(F)(F)CC1CCC1C2CC[C@]2(C)C(c3cncc(F)c3)=CCC12", "note": "(stereo partly drawn) [Compound 405, 3-((10S,13S)-3,3-difluoro-10,13-dimethyl-2,3,4,5,6,7,8,9,10,11,12,13,14,15-tetradecahydro-1H-cyclopenta[a]phenanthren-17-yl)-5-fluoropyridine]", "values": [
      {"measurement": "IC50", "setting": "[1]; [3]", "value": "> 25", "unit": "nM"}
    ]},
    {"smiles": "CO[C@H]1CC[C@@]2(C)C(=CCC3C2CC[C@]2(C)C(n4ccnc4)=CCC32)C1", "note": "(stereo partly drawn) [Compound 459, 1-((3S,10R,13S)-3-methoxy-10,13-dimethyl-2,3,4,7,8,9,10,11,12,13,14,15-dodecahydro-1H-cyclopenta[a]phenanthren-17-yl)-1H-imidazole]", "values": [
      {"measurement": "inhibition at 0.001 µM", "setting": "[2]; [5]", "value": "10 to 50", "unit": "%"}
    ]},
    {"smiles": "C[C@H]1C2CCC3C(CC[C@]4(C)C(c5cncc(C(F)F)c5)=CCC34)[C@@]2(C)CC[C@@H]1O", "note": "(stereo partly drawn) [Compound 307, (3S,4S,10R,13S)-17-(5-(difluoromethyl)pyridin-3-yl)-4,10,13-trimethyl-2,3,4,5,6,7,8,9,10,11,12,13,14,15-tetradecahydro-1H-cyclopenta[a]phenanthren-3-ol]", "values": [
      {"measurement": "inhibition at 0.001 µM", "setting": "[2]; read-out: Biological Example No. 12: CYP17 enzymatic assay % inhibition at 1 nM", "value": "10 to 50", "unit": "%"}
    ]},
    {"smiles": "CCc1ccncc1C1=CC=C2C3CCC4CC(=O)NCC[C@]4(C)C3CC[C@]12C", "note": "(stereo partly drawn) [Compound 467, (5aS,7aS)-8-(4-ethylpyridin-3-yl)-5a,7a-dimethyl-3,4,5,5a,5b,6,7,7a,10b,11,12,12a-dodecahydrocyclopenta[5,6]naphtho[1,2-d]azepin-2(1H)-one]", "values": [
      {"measurement": "inhibition at 0.001 µM", "setting": "[2]; [5]", "value": "10 to 50", "unit": "%"}
    ]},
    {"smiles": "C[C@]12CCNC(=O)CC1CCC1C2CC[C@]2(C)C(c3cncc(F)c3)=CCC12", "note": "(stereo partly drawn) [Compound 481, (5aS,7aS)-8-(5-fluoropyridin-3-yl)-5a,7a-dimethyl-4,5,5a,5b,6,7,7a,10,10a,10b,11,12,12a-tetradecahydrocyclopenta[5,6]naphtho[1,2-d]azepin-2(1H)-one]", "values": [
      {"measurement": "Biological Example No. 12: CYP17 enzymatic assay % inhibition at 1 nM", "setting": "[2]", "value": "N (N means the compound had a percent inhibition of greater than or equal to 10% but less than 50%)"}
    ]},
    {"smiles": "C[C@]12CC[C@@H](NS(C)(=O)=O)CC1=CCC1C2CC[C@]2(C)C(c3cccnc3)=CCC12", "note": "(stereo partly drawn) [Compound 225, N-((3R,10R,13S)-10,13-dimethyl-17-(pyridin-3-yl)-2,3,4,7,8,9,10,11,12,13,14,15-dodecahydro-1H-cyclopenta[a]phenanthren-3-yl)methanesulfonamide]", "values": [
      {"measurement": "inhibition at 0.001 µM", "setting": "[2]; [5]", "value": "10 to 50", "unit": "%"}
    ]},
    {"smiles": "CCOc1cncc(C2=CC[C@H]3[C@@H]4CC[C@H]5C[C@@H](OC)CC[C@]5(C)[C@H]4CC[C@]23C)c1", "note": "[Compound 457, 3-ethoxy-5-((3S,5S,8R,9S,10S,13S,14S)-3-methoxy-10,13-dimethyl-2,3,4,5,6,7,8,9,10,11,12,13,14,15-tetradecahydro-1H-cyclopenta[a]phenanthren-17-yl)pyridine]", "values": [
      {"measurement": "inhibition at 0.001 µM", "setting": "[2]; [5]", "value": "10 to 50", "unit": "%"}
    ]}
  ]
}
